We go through two compounds from paper PMC10500570 (ACS Omega, 2023).

One assay addresses Human recombinant AChE (Homo sapiens, UniProt P22303). Description: AChE inhibition, Ellman assay. It is filed as biochemical.
Another assay has as its system SH-SY5Y cells. The assay is described as follows: SRB cytotoxicity assay. The class given is cell-based. Particulars: Homo sapiens, 48 h, read-out: GI50 ± SD.
The target in a further assay is BChE from equine serum (Equus caballus, UniProt P81908). Description: BChE inhibition, Ellman assay. The class given is biochemical.
Chain of BChE from equine serum (P81908 whole entry): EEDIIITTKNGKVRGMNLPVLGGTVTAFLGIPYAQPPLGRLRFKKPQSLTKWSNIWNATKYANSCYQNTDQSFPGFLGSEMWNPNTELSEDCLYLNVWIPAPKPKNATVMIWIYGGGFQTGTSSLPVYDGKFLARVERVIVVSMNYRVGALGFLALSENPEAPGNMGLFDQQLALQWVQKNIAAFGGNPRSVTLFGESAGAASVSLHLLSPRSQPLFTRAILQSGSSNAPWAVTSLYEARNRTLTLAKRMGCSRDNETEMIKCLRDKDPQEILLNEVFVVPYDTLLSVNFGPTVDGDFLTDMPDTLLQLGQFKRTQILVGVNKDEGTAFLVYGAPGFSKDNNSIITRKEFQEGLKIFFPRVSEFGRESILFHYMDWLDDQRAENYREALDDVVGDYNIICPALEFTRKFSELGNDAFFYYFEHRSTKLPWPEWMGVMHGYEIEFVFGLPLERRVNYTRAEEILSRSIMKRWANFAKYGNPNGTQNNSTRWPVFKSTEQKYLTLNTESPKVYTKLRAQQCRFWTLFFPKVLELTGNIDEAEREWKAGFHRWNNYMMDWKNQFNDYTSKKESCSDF

Chain of Human recombinant AChE (P22303 32-614): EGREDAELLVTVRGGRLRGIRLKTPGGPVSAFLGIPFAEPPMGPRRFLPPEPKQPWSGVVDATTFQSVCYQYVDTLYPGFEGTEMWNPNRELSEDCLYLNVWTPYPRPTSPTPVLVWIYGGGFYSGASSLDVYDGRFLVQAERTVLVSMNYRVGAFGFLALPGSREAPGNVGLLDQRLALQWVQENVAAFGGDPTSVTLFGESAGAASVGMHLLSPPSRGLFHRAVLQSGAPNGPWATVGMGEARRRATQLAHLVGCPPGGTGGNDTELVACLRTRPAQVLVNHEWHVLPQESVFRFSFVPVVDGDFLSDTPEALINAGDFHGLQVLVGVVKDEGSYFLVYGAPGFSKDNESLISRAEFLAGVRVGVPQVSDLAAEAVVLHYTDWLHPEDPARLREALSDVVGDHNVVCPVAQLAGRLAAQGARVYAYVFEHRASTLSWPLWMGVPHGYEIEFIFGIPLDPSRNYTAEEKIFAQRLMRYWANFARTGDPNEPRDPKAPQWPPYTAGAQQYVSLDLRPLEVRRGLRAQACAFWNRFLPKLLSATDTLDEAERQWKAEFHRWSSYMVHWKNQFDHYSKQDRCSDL

For the compound `O=C1C=C(OCCCCCCCCn2cc(CNc3ccc4ncc(-c5ccccc5)nc4c3)nn2)C(=O)c2ccccc21` [Compound 7d], the figures for the IC50 on Human recombinant AChE and on BChE from equine serum were > 100 µM and 4.4 ± 0.4 µM, respectively. The “SI (selectivity index)” value at Human recombinant AChE (Selectivity index = BChE IC50/AChE IC50) is listed as <0.044. The GI50 in the assay with SH-SY5Y cells is > 100 µM.

On to `O=C1C=C(OCCCCCCn2cc(CNc3ccc4ncc(-c5ccccc5)nc4c3)nn2)C(=O)c2ccccc21` [Compound 7c], for which the IC50 on Human recombinant AChE and against BChE from equine serum was > 100 µM in each case. In the assay with SH-SY5Y cells, the GI50 is > 100 µM.
